These are literature values, as cited in patent US9358298B2, “17-hydroxyprogesterone ester containing oral compositions and related methods” (Lipocine Inc., priority 2011, dated 2016).

The conditions of data set [1]: given by mouth; Saxton et al. 2004, Greene NEJM.

The structures appear in SMILES notation. Some results are limits rather than exact numbers.

On to `CCCCCC(=O)O[C@]1(C(C)=O)CC[C@H]2[C@@H]3CCC4=CC(=O)CC[C@]4(C)[C@H]3CC[C@@]21C` [17-hydroxyprogesterone caproate, 17-alpha-hydroxyprogesterone caproate], for which the solubility in water is less than 0.02 µg/mL. Besides, the oral activity entry in data set [1] is given as “no oral activity”.
